Experimental data published in patent US7528138B2, “Pyrazolo[1,5-a]pyrimidines useful as inhibitors of protein kinases” (Vertex Pharmaceuticals Incorporated, priority 2004, dated 2009).

Columns and labels:
Itk = target: T1, Itk (Homo sapiens, UniProt Q08881); experiment: ITK Inhibition Assay (Radiometric), radioactive-phosphate incorporation; type: biochemical; conditions: enzyme inhibition data (Ki), Table 11; radiometric or UV assay not stated
T1 sequence (Q08881 1-620): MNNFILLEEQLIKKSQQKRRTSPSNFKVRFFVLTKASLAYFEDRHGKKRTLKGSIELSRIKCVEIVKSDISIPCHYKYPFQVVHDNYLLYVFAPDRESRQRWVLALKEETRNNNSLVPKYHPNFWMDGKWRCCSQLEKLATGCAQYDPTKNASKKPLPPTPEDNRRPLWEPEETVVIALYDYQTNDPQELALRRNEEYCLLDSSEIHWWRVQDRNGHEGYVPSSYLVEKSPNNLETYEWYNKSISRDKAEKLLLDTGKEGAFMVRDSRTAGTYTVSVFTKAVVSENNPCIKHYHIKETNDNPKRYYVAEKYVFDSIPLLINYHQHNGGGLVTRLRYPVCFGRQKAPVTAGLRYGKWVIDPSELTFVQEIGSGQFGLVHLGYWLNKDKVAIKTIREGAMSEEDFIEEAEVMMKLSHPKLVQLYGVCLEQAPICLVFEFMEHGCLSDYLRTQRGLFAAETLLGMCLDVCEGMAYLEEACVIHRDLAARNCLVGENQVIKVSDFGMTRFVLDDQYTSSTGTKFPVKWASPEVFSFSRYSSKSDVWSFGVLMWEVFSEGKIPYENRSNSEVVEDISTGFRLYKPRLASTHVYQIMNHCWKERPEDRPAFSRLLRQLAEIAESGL
Procedure, shortened: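 Radiometric 33P incorporation into SAM68 peptide (D332-443) with filter capture and scintillation counting; 10 min pre-incubation then 10 min reaction at 25° C. IC50 format: 30 nM Itk, 15 μM ATP, 2 μM peptide, HEPES pH 7.5. Ki(app) format: 50 nM Itk, 7.5 μM ATP, 3 μM peptide, MOPS pH 7.0.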

Aurora-2 = target: T2, Aurora-2 (Homo sapiens, UniProt O14965); experiment: Aurora-A (Aurora-2) Inhibition Assay, coupled enzyme assay; type: biochemical; conditions: enzyme inhibition data (Ki), Table 11; read-out: AurA Ki
T2 sequence (O14965 1-403): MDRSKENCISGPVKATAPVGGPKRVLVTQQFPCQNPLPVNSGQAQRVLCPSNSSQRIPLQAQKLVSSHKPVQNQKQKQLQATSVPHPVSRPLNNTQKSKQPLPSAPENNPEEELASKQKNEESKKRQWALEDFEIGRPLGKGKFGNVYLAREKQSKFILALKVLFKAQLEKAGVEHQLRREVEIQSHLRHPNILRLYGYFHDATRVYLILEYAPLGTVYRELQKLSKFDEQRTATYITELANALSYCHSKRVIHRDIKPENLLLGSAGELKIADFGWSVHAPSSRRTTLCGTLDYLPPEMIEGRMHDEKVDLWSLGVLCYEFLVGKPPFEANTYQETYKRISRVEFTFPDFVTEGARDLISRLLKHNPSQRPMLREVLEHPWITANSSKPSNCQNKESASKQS
Procedure, shortened: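 Coupled pyruvate kinase/lactate dehydrogenase assay following NADH, pH 7.5 Hepes, 40 nM Aurora-2, 400 μM ATP and 570 μM Kemptide at 30 °C. Compound (top final typically 7.5 μM) preincubated 10 min; initial rates over 10 min; IC50 and Ki by non-linear regression.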

Row | Compound | Ki (Itk) | Ki (Aurora-2)
1 | CC(C)N(C)C(=O)c1ccc(-c2cnc3c(-c4ccccn4)c(N)nn3c2)nc1 [Compound V-67] | 500 to 5000 nM | < 500 nM
2 | Nc1nn2cc(-c3ccc(C(=O)N4CCCC(CO)C4)cn3)cnc2c1-c1ccccn1 (stereo not shown) [Compound V-71] | < 500 nM | < 500 nM
3 | Cc1cnc2c(-c3cc(Nc4ccccc4)ncn3)c(N)nn2c1 [Compound V-279] | < 500 nM | < 500 nM
4 | Nc1nn2cc(-c3ccc(C(=O)N4CCC(CCO)CC4)cn3)cnc2c1-c1ccccn1 [Compound V-83] | < 500 nM | < 500 nM
5 | Cc1cnc2c(-c3cc(NC4CCC4)ncn3)c(N)nn2c1 [Compound V-290] | 500 to 5000 nM | 500 to 5000 nM
6 | COc1ccncc1-c1cnc2c(-c3ccccn3)c(N)nn2c1 [Compound V-22] | 500 to 5000 nM | 500 to 5000 nM
7 | CN(C)CCNC(=O)c1ccc(-c2cnc3c(-c4ccccn4)c(N)nn3c2)nc1 [Compound V-65] | < 500 nM | 500 to 5000 nM
8 | CC[C@H](C)Nc1cc(-c2c(N)nn3cc(C)cnc23)ncn1 [Compound V-294] | 500 to 5000 nM | 500 to 5000 nM
9 | Cc1cnc2c(-c3cc(NC4CC4)ncn3)c(N)nn2c1 [Compound V-289] | 500 to 5000 nM | 500 to 5000 nM
10 | CN(C)CCNC(=O)c1cccc(-c2cnc3c(-c4ccccn4)c(N)nn3c2)c1 [Compound V-54] | 500 to 5000 nM | 500 to 5000 nM
11 | COc1ccc(-c2cnc3c(C#N)c(N)nn3c2)cc1 [Compound V-2] | 500 to 5000 nM | 500 to 5000 nM
12 | CCN(CCN)C(=O)c1ccc(-c2cnc3c(-c4ccccn4)c(N)nn3c2)nc1 [Compound V-62] | < 500 nM | 500 to 5000 nM
13 | Cc1cnc2c(-c3cc(NC4CCN(Cc5ccccc5)C4)ncn3)c(N)nn2c1 (stereo not shown) [Compound V-286] | 500 to 5000 nM | 500 to 5000 nM
14 | COCCN1CCN(C(=O)c2ccc(-c3cnc4c(-c5ccccn5)c(N)nn4c3)nc2)CC1 [Compound V-68] | < 500 nM | < 500 nM
15 | Nc1nn2cc(-c3ccc(C(=O)NCCF)cn3)cnc2c1-c1ccccn1 [Compound V-73] | 500 to 5000 nM | 500 to 5000 nM
16 | COc1ccccc1Nc1cc(-c2c(N)nn3cc(C)cnc23)ncn1 [Compound V-274] | < 500 nM | 500 to 5000 nM
17 | CCN(CCC#N)C(=O)c1ccc(-c2cnc3c(-c4ccccn4)c(N)nn3c2)nc1 [Compound V-90] | < 500 nM | < 500 nM
18 | Nc1nn2cc(-c3ccc(C(=O)N4CCCCC4CCO)cn3)cnc2c1-c1ccccn1 (stereo not shown) [Compound V-82] | < 500 nM | 500 to 5000 nM
19 | Nc1nn2cc(-c3ccc(C(=O)N4CCC(N)C4)cn3)cnc2c1-c1ccccn1 (stereo not shown) [Compound V-81] | < 500 nM | < 500 nM
20 | CCN(C)C(=O)c1ccc(-c2cnc3c(-c4ccccn4)c(N)nn3c2)nc1 [Compound V-89] | < 500 nM | < 500 nM
21 | Cc1cnc2c(-c3cc(N[C@H](C)CO)ncn3)c(N)nn2c1 [Compound V-293] | 500 to 5000 nM | 500 to 5000 nM
22 | Cc1cnc2c(-c3cc(NC4CCCCC4)ncn3)c(N)nn2c1 [Compound V-291] | 500 to 5000 nM | 500 to 5000 nM
23 | CCN(CCCCN)C(=O)c1ccc(-c2cnc3c(-c4ccccn4)c(N)nn3c2)nc1 [Compound V-74] | < 500 nM | 500 to 5000 nM
24 | CCOC(=O)N1CCN(C(=O)c2ccc(-c3cnc4c(-c5ccccn5)c(N)nn4c3)nc2)CC1 [Compound V-76] | < 500 nM | < 500 nM
25 | CCCN(CCO)C(=O)c1ccc(-c2cnc3c(-c4ccccn4)c(N)nn3c2)nc1 [Compound V-92] | < 500 nM | < 500 nM

Row | Compound | Ki (Itk) | Ki (Aurora-2)
26 | Nc1nn2cc(-c3ccc(C(=O)N4CCSCC4)cn3)cnc2c1-c1ccccn1 [Compound V-87] | < 500 nM | < 500 nM
27 | Nc1nn2cc(-c3ccc(C(=O)N4CCC[C@@H](O)C4)cn3)cnc2c1-c1ccccn1 [Compound V-79] | < 500 nM | < 500 nM
28 | CCN(C(=O)c1c(N)nn2cc(-c3ccncn3)cnc12)C(C)C [Compound V-33] | 500 to 5000 nM | 500 to 5000 nM
29 | Cc1cnc2c(-c3cc(NC4CCN(Cc5ccccc5)CC4)ncn3)c(N)nn2c1 [Compound V-285] | 500 to 5000 nM | 500 to 5000 nM
30 | CSc1cc(-c2c(N)nn3cc(C)cnc23)ncn1 [Compound V-281] | 500 to 5000 nM | 500 to 5000 nM
31 | Cc1cnc2c(-c3cc(N4CCCCC4)ncn3)c(N)nn2c1 [Compound V-276] | < 500 nM | 500 to 5000 nM
32 | Cc1cnc2c(-c3cc(NC(C)C)ncn3)c(N)nn2c1 [Compound V-273] | 500 to 5000 nM | 500 to 5000 nM
33 | COCCN(C)C(=O)c1ccc(-c2cnc3c(-c4ccccn4)c(N)nn3c2)nc1 [Compound V-75] | 500 to 5000 nM | < 500 nM
34 | CN1CCN(C(=O)c2cccc(-c3cnc4c(-c5ccccn5)c(N)nn4c3)c2)CC1 [Compound V-55] | 500 to 5000 nM | 500 to 5000 nM
35 | CCN1CCN(C(=O)c2ccc(-c3cnc4c(-c5ccccn5)c(N)nn4c3)nc2)C(O)C1 (stereo not shown) [Compound V-78] | < 500 nM | < 500 nM
36 | CN1CCCN(C(=O)c2ccc(-c3cnc4c(-c5ccccn5)c(N)nn4c3)nc2)CC1 [Compound V-70] | < 500 nM | < 500 nM
37 | Nc1nn2cc(-c3ccc(C(=O)N4CCC4)cn3)cnc2c1-c1ccccn1 [Compound V-86] | 500 to 5000 nM | 500 to 5000 nM
38 | CCN1CCN(C(=O)c2ccc(-c3cnc4c(-c5ccccn5)c(N)nn4c3)nc2)CC1 [Compound V-63] | < 500 nM | < 500 nM
39 | CN(CCN)C(=O)c1ccc(-c2cnc3c(-c4ccccn4)c(N)nn3c2)nc1 [Compound V-94] | < 500 nM | 500 to 5000 nM
40 | CC(C)N1CCN(c2ccc(-c3cnc4c(-c5ccccn5)c(N)nn4c3)cc2)CC1 [Compound V-51] | < 500 nM | 500 to 5000 nM
41 | CCCN(CCCN)C(=O)c1ccc(-c2cnc3c(-c4ccccn4)c(N)nn3c2)nc1 [Compound V-85] | < 500 nM | 500 to 5000 nM
42 | Cc1cnc2c(-c3cc(N[C@@H](C)CO)ncn3)c(N)nn2c1 [Compound V-295] | 500 to 5000 nM | 500 to 5000 nM
43 | Nc1nn2cc(Cl)cnc2c1-c1ccccn1 [Compound V-280] | 500 to 5000 nM | < 500 nM
44 | Nc1nn2cc(N3CCOCC3)cnc2c1-c1ccccn1 [Compound V-57] | 500 to 5000 nM | 500 to 5000 nM
45 | COC(=O)N1CCN(C(=O)c2ccc(-c3cnc4c(-c5ccccn5)c(N)nn4c3)nc2)CC1 [Compound V-64] | < 500 nM | < 500 nM
46 | CCOC(=O)c1c(N)nn2cc(-c3ccc(Cl)cc3)cnc12 [Compound V-24] | 500 to 5000 nM | 500 to 5000 nM
47 | Cc1cnc2c(-c3cc(NCC4CCCO4)ncn3)c(N)nn2c1 (stereo not shown) [Compound V-278] | 500 to 5000 nM | 500 to 5000 nM
48 | Cc1cnc2c(-c3cc(NCC4CC4)ncn3)c(N)nn2c1 [Compound V-277] | 500 to 5000 nM | 500 to 5000 nM
49 | C#CCN(C)C(=O)c1ccc(-c2cnc3c(-c4ccccn4)c(N)nn3c2)nc1 [Compound V-72] | < 500 nM | < 500 nM
50 | Nc1nn2cc(-c3ccc(C(=O)N4CCC[C@@H]4CO)cn3)cnc2c1-c1ccccn1 [Compound V-93] | < 500 nM | < 500 nM
